In ChEMBL document CHEMBL4649987, “Benzoisoquinolinediones as Potent and Selective Inhibitors of BRPF2 and TAF1/TAF1L Bromodomains” (ACS Chem Biol, 2017):
Values joined by “and” are separate entries in the source; they are usually repeats but may differ in a detail not shown here. Equal entries are not always repeated.

Columns and labels:
[1] = target: Protein polybromo-1 (Homo sapiens) (UniProt Q86U86); conditions: Compound concentration 10.0 uM, Protein concentration 2.0 uM
[2] = target: Protein polybromo-1 (Homo sapiens) (UniProt Q86U86); conditions: Compound concentration 10.0 uM, Protein concentration 2.0 uM; remark: listed apart in the source
[3] = target: Bromodomain-containing protein 7 (Homo sapiens) (UniProt Q9NPI1); conditions: Compound concentration 10.0 uM, Protein concentration 2.0 uM
[4] = target: Histone acetyltransferase p300 (Homo sapiens) (UniProt Q09472); conditions: Compound concentration 10.0 uM, Protein concentration 2.0 uM
[5] = target: Histone acetyltransferase KAT2B (Homo sapiens) (UniProt Q92831); conditions: Compound concentration 10.0 uM, Protein concentration 2.0 uM
[6] = target: Protein polybromo-1 (Homo sapiens) (UniProt Q86U86); conditions: Compound concentration 10.0 uM, Protein concentration 2.0 uM; remark: listed apart in the source
[7] = target: Nuclear body protein SP140 (Homo sapiens) (UniProt Q13342); conditions: Compound concentration 10.0 uM, Protein concentration 2.0 uM
[8] = target: Histone acetyltransferase KAT2A (Homo sapiens) (UniProt Q92830); conditions: Compound concentration 10.0 uM, Protein concentration 2.0 uM
[9] = target: Transcription initiation factor TFIID subunit 1-like (Homo sapiens) (UniProt Q8IZX4); conditions: Compound concentration 10.0 uM, Protein concentration 2.0 uM
[10] = target: Bromodomain and WD repeat-containing protein 3 (Homo sapiens) (UniProt Q6RI45); conditions: Compound concentration 10.0 uM, Protein concentration 2.0 uM
[11] = target: Bromodomain testis-specific protein (Homo sapiens) (UniProt Q58F21); conditions: Compound concentration 10.0 uM, Protein concentration 2.0 uM
[12] = target: Nucleosome-remodeling factor subunit BPTF (Homo sapiens) (UniProt Q12830); conditions: Compound concentration 10.0 uM, Protein concentration 2.0 uM
[13] = target: Nuclear body protein SP140-like protein (Homo sapiens) (UniProt Q9H930); conditions: Compound concentration 10.0 uM, Protein concentration 2.0 uM
[14] = target: Protein polybromo-1 (Homo sapiens) (UniProt Q86U86); conditions: Compound concentration 10.0 uM, Protein concentration 2.0 uM; remark: listed apart in the source
[15] = target: Bromodomain adjacent to zinc finger domain protein 2B (Homo sapiens) (UniProt Q9UIF8); conditions: Compound concentration 10.0 uM, Protein concentration 2.0 uM
[16] = target: ATPase family AAA domain-containing protein 2 (Homo sapiens) (UniProt Q6PL18); conditions: Compound concentration 10.0 uM, Protein concentration 2.0 uM
[17] = target: Histone-lysine N-methyltransferase 2A (Homo sapiens) (UniProt Q03164); conditions: Compound concentration 10.0 uM, Protein concentration 2.0 uM
[18] = target: Transcription intermediary factor 1-alpha (Homo sapiens) (UniProt O15164); conditions: Compound concentration 10.0 uM, Protein concentration 2.0 uM
[19] = target: Bromodomain testis-specific protein (Homo sapiens) (UniProt Q58F21); conditions: Compound concentration 10.0 uM, Protein concentration 2.0 uM; remark: listed apart in the source
[20] = target: Transcription intermediary factor 1-alpha (Homo sapiens) (UniProt O15164); conditions: Compound concentration 10.0 uM, Protein concentration 2.0 uM; remark: listed apart in the source
[21] = target: Bromodomain-containing protein 4 (Homo sapiens) (UniProt O60885); conditions: Compound concentration 10.0 uM, Protein concentration 2.0 uM
[22] = target: Tyrosine-protein kinase BAZ1B (Homo sapiens) (UniProt Q9UIG0); conditions: Compound concentration 10.0 uM, Protein concentration 2.0 uM
[23] = target: Transcription initiation factor TFIID subunit 1 (Homo sapiens) (UniProt P21675); conditions: Compound concentration 10.0 uM, Protein concentration 2.0 uM
[24] = target: Bromodomain-containing protein 3 (Homo sapiens) (UniProt Q15059); conditions: Compound concentration 10.0 uM, Protein concentration 2.0 uM
[25] = target: Bromodomain adjacent to zinc finger domain protein 2A (Homo sapiens) (UniProt Q9UIF9); conditions: Compound concentration 10.0 uM, Protein concentration 2.0 uM
[26] = target: Bromodomain and PHD finger-containing protein 3 (Homo sapiens) (UniProt Q9ULD4); conditions: Compound concentration 10.0 uM, Protein concentration 2.0 uM
[27] = target: Transcription initiation factor TFIID subunit 1-like (Homo sapiens) (UniProt Q8IZX4); conditions: Compound concentration 10.0 uM, Protein concentration 2.0 uM; remark: listed apart in the source
[28] = target: ATPase family AAA domain-containing protein 2B (Homo sapiens) (UniProt Q9ULI0); conditions: Compound concentration 10.0 uM, Protein concentration 2.0 uM
[29] = target: Transcription intermediary factor 1-beta (Homo sapiens) (UniProt Q13263); conditions: Compound concentration 10.0 uM, Protein concentration 2.0 uM
[30] = target: SWI/SNF-related matrix-associated actin-dependent regulator of chromatin subfamily A member 2 (Homo sapiens) (UniProt P51531); conditions: Compound concentration 10.0 uM, Protein concentration 2.0 uM
[31] = target: E3 ubiquitin-protein ligase TRIM33 (Homo sapiens) (UniProt Q9UPN9); conditions: Compound concentration […], Protein concentration 200.0 uM
[32] = target: Bromodomain adjacent to zinc finger domain protein 1A (Homo sapiens) (UniProt Q9NRL2); conditions: Compound concentration 10.0 uM, Protein concentration 2.0 uM
[33] = target: Histone-lysine N-methyltransferase ASH1L (Homo sapiens) (UniProt Q9NR48); conditions: Compound concentration 10.0 uM, Protein concentration 2.0 uM
[34] = target: Protein polybromo-1 (Homo sapiens) (UniProt Q86U86); conditions: Compound concentration 10.0 uM, Protein concentration 2.0 uM; remark: listed apart in the source
[35] = target: Bromodomain-containing protein 9 (Homo sapiens) (UniProt Q9H8M2); conditions: Compound concentration 10.0 uM, Protein concentration 2.0 uM
[36] = target: Transcription initiation factor TFIID subunit 1 (Homo sapiens) (UniProt P21675); conditions: Compound concentration 10.0 uM, Protein concentration 2.0 uM; remark: listed apart in the source
[37] = target: Bromodomain-containing protein 4 (Homo sapiens) (UniProt O60885); conditions: Compound concentration 10.0 uM, Protein concentration 2.0 uM; remark: listed apart in the source
[38] = target: SWI/SNF-related matrix-associated actin-dependent regulator of chromatin subfamily A member 4 (Homo sapiens) (UniProt P51532); conditions: Compound concentration 10.0 uM, Protein concentration 2.0 uM
[39] = target: Bromodomain-containing protein 2 (Homo sapiens) (UniProt P25440); conditions: Compound concentration 10.0 uM, Protein concentration 2.0 uM
[40] = target: Protein polybromo-1 (Homo sapiens) (UniProt Q86U86); conditions: Compound concentration 10.0 uM, Protein concentration 2.0 uM; remark: listed apart in the source
[41] = target: Bromodomain-containing protein 3 (Homo sapiens) (UniProt Q15059); conditions: Compound concentration 10.0 uM, Protein concentration 2.0 uM; remark: listed apart in the source
[42] = target: Bromodomain-containing protein 2 (Homo sapiens) (UniProt P25440); conditions: Compound concentration 10.0 uM, Protein concentration 2.0 uM; remark: listed apart in the source
[43] = target: PH-interacting protein (Homo sapiens) (UniProt Q8WWQ0); conditions: Compound concentration 10.0 uM, Protein concentration 2.0 uM

Chain of Protein polybromo-1 (Homo sapiens) (Q86U86 whole entry, the tested form may be a part): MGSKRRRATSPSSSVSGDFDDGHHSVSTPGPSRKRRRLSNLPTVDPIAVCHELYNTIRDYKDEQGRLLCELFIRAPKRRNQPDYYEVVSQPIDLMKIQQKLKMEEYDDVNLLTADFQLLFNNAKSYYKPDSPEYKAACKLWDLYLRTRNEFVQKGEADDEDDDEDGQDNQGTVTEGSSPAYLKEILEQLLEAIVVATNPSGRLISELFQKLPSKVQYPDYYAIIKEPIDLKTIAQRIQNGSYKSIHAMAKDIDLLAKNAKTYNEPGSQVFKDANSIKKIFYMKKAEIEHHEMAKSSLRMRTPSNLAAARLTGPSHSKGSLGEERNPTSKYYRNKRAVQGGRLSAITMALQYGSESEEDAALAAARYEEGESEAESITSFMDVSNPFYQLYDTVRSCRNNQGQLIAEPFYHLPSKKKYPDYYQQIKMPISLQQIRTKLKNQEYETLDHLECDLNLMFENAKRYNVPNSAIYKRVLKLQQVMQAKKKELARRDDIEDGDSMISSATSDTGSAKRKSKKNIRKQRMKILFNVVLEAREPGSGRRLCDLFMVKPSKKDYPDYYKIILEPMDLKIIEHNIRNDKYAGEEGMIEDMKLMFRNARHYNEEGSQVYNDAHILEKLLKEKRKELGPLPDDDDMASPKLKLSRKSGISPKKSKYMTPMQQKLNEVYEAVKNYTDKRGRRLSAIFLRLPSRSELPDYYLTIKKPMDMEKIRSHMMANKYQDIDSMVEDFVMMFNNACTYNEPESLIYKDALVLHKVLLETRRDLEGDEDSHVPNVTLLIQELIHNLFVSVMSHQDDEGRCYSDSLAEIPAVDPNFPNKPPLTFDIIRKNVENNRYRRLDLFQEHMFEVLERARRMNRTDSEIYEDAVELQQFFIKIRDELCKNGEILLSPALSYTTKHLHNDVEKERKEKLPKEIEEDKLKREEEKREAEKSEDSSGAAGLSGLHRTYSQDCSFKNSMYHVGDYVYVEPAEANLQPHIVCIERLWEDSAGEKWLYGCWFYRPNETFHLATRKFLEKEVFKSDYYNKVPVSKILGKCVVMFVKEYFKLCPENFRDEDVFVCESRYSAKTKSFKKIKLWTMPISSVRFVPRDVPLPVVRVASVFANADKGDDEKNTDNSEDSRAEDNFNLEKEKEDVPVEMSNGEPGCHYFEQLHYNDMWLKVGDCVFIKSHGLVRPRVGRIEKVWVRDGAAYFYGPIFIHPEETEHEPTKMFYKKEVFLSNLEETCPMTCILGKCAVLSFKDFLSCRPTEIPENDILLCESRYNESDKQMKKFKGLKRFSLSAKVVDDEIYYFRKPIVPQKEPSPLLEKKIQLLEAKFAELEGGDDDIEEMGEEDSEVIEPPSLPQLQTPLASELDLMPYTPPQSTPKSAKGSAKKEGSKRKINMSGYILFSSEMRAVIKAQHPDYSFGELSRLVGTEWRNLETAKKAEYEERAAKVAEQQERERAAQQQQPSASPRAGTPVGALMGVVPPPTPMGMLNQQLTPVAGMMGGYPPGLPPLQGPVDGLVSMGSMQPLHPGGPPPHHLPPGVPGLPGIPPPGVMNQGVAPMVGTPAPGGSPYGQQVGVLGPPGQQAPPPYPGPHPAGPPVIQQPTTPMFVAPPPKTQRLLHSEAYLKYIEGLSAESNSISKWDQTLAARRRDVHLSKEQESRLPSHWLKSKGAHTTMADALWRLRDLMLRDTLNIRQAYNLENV
Chain of Transcription initiation factor TFIID subunit 1 (Homo sapiens) (P21675 whole entry): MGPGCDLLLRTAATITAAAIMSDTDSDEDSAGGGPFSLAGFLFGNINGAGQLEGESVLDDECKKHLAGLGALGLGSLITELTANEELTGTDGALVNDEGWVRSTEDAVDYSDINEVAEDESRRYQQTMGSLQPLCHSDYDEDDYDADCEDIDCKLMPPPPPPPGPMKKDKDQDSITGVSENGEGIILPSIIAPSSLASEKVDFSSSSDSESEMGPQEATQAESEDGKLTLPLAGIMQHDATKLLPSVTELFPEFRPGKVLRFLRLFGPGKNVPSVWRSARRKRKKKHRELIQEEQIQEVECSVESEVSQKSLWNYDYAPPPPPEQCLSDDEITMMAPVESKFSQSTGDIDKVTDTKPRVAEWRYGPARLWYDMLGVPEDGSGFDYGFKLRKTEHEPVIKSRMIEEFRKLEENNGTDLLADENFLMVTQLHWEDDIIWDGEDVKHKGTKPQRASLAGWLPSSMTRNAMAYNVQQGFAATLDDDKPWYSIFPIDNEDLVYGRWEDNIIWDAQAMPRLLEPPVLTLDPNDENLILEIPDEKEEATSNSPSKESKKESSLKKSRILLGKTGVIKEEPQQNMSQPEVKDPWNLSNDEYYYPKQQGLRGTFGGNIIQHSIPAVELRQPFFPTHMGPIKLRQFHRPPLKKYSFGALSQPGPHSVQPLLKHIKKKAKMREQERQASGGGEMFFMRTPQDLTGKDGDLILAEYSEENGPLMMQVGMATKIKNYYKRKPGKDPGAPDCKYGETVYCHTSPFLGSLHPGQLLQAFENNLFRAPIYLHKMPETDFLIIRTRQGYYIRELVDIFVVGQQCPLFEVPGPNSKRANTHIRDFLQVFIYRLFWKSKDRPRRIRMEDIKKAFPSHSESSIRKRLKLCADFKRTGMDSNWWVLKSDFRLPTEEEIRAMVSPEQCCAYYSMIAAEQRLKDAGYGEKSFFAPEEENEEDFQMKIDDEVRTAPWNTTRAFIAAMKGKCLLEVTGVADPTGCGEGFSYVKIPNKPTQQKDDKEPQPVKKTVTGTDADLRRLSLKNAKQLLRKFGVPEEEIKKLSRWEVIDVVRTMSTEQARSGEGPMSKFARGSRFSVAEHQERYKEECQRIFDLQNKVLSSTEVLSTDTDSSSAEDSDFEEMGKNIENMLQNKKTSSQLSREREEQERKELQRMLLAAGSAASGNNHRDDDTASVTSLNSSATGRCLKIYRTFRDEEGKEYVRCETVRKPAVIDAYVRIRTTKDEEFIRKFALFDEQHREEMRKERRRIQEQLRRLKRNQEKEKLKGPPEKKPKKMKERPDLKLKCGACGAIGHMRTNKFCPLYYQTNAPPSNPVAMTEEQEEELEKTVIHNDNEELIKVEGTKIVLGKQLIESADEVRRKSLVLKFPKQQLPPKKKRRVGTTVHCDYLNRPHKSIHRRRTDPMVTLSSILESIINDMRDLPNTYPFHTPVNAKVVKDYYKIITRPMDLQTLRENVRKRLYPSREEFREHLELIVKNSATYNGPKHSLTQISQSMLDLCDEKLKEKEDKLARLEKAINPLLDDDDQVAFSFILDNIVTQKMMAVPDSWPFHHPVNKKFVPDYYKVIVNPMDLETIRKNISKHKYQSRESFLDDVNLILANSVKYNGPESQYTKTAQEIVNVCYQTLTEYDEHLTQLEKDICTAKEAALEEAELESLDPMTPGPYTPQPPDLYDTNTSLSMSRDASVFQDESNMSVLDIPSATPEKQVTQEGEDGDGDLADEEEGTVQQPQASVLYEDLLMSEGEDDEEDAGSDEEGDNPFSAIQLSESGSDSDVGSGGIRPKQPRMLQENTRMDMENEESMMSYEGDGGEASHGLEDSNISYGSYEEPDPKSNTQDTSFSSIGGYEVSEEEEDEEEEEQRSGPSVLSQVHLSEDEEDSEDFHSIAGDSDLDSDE
Chain of Bromodomain-containing protein 2 (Homo sapiens) (P25440 whole entry, looked up): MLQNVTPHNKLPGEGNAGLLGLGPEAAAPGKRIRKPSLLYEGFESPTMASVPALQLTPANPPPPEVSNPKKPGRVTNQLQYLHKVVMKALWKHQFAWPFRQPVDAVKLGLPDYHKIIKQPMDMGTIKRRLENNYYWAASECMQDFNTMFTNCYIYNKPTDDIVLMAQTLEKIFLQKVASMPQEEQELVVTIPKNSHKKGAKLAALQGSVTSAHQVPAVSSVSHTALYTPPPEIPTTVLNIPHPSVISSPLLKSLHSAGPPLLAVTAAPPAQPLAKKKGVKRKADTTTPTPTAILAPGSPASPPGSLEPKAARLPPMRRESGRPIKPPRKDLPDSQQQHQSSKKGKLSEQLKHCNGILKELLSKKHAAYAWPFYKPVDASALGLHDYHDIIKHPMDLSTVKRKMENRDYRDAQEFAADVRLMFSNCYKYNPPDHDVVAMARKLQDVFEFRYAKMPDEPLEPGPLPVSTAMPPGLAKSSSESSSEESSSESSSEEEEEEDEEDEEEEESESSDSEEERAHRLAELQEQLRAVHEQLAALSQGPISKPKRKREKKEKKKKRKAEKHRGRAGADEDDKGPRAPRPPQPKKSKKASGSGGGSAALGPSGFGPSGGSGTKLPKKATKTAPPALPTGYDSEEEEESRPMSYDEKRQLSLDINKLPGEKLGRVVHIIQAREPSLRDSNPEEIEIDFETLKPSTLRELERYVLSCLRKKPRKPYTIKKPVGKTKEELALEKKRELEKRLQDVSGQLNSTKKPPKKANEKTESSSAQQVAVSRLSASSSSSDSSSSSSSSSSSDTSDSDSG
Chain of Bromodomain-containing protein 3 (Homo sapiens) (Q15059 2-726 limits assumed): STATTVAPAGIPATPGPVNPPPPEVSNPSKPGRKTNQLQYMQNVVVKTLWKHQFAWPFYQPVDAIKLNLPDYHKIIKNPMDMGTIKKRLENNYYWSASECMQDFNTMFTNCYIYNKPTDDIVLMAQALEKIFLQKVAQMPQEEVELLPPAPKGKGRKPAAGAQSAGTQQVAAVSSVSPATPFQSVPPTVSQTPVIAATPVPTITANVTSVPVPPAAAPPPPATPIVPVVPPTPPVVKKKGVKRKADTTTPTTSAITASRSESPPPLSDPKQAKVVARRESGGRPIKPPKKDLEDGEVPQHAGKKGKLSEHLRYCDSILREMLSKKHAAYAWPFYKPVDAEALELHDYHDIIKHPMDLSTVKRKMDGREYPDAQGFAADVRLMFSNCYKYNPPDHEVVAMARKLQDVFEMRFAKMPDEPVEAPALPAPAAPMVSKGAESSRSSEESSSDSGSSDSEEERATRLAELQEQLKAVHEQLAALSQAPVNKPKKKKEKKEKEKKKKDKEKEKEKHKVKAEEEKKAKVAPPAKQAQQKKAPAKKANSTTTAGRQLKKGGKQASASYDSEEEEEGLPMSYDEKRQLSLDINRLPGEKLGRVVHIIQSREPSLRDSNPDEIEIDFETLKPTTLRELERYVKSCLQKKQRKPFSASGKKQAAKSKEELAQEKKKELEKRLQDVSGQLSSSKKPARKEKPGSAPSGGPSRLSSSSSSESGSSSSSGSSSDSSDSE

A ΔTm [1] of -0.44 °C, a ΔTm [2] of 0.03 °C and a ΔTm [3] of 3.84 °C were found for `COc1ccccc1C(=O)Nc1cc2c(cc1N1CCCC1)n(C)c(=O)n2C` in this work. It also gave a ΔTm [4] of 0.9 °C, a ΔTm [5] of 2.09 °C and a ΔTm [6] of -0.35 °C. It also gave a ΔTm [7] of 0.2 °C, a ΔTm [8] of 0.21 °C and a ΔTm [9] of 0.31 °C. For the same compound, the ΔTm [10] was -0.2 °C, the ΔTm [11] was 0.27 °C and the ΔTm [12] was 0.31 °C. It also gave a ΔTm [13] of -0.24 °C, a ΔTm [14] of 0.54 °C and a ΔTm [15] of 0.88 °C. The ΔTm [16] was -0.03 °C, the ΔTm [17] was 0.13 °C and the ΔTm [18] was 0.72 °C. The ΔTm [19] was 0.18 °C, the ΔTm [20] was 1.35 °C and the ΔTm [21] was 1.37 °C. It also gave a ΔTm [22] of -0.03 °C, a ΔTm [23] of 0.9 °C and a ΔTm [24] of 0.74 °C. For the same compound, the ΔTm [25] was 0.5 °C, the ΔTm [26] was 2.36 °C and 1.34 °C and the ΔTm [27] was 0.79 °C. It also gave a ΔTm [28] of -0.04 °C, a ΔTm [29] of -0.53 °C and a ΔTm [30] of 0.18 °C. For the same compound, the inhibition [31] was 35.5%, the ΔTm [32] was 0.5 °C and the ΔTm [33] was 0.36 °C. The ΔTm [34] was 0.73 °C, the ΔTm [35] was 1.21 °C and the ΔTm [36] was 0.33 °C. It also gave a ΔTm [37] of 0.33 °C, a ΔTm [38] of 0.2 °C and a ΔTm [39] of 0.74 °C. For the same compound, the ΔTm [40] was 0.26 °C, the ΔTm [41] was 0.33 °C and the ΔTm [42] was 0.75 °C. The ΔTm [43] was 0.71 °C.
